In patent US6552208B1, “Fractionation process” (Karlshamns AB, priority 1998, dated 2003):

System: Normal human dermal fibroblasts
Assay: UV radiation test in vitro, UV-B
Assay type: cell-based
Settings: fibroblasts exposed to test substance 48 hours before UV irradiation; UV dose inducing 50% of cell death
Procedure: The fractionated low-erucic rapeseed oil of Example 1, the canola oil fraction, was tested in vitro for its ability to decrease the damage to cells exposed to free radicals generated by exposure to UV radiation. Normal human dermal fibroblasts were exposed to the test substance at different concentrations 48 hours before UV irradiation. DL-α-tocopheryl acetate was used as a positive control in the study. The UV dose inducing 50% of cell death was determined after the treatment by exposing the cell cultures to UV-A and UV-B radiation at different intensities.

CC(=O)Oc1c(C)c(C)c2c(c1C)CC[C@@](C)(CCC[C@H](C)CCC[C@H](C)CCCC(C)C)O2 (racemic) [DL-α-tocopheryl acetate]
protection against UV-B radiation: neither the fractionated rapeseed oil of Example 1 or the DL-α-tocopheryl acetate gave any protection
